Laboratory results: patent US20090312396A1, “METHODS FOR CANCER TREATMENT USING TAK1 INHIBITORS” (AstraZeneca AB, priority 2006, published 2009)
Where two headings read alike, the source gives them in different places.

Experiments:
TAK1 = biological target: T1, TAK1 (Homo sapiens, UniProt O43318); assay: TAK1 enzyme inhibition; assay type: biochemical
T1 sequence (O43318 1-606): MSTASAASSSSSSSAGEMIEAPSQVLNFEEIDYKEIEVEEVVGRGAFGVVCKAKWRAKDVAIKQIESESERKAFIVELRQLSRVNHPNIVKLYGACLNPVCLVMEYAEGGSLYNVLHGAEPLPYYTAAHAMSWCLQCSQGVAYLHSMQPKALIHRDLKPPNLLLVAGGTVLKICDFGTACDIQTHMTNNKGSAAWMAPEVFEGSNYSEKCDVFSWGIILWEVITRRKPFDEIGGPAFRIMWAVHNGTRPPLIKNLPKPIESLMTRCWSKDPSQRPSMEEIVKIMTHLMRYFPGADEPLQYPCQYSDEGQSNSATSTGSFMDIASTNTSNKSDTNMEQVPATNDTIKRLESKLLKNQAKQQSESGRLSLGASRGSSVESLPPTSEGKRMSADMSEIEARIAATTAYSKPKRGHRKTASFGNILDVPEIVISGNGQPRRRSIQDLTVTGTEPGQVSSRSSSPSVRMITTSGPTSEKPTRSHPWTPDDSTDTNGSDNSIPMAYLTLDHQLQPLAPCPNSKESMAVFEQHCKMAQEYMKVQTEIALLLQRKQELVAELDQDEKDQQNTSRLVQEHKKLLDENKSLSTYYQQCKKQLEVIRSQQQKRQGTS
T1 sequence (Q15750 1-504 partner): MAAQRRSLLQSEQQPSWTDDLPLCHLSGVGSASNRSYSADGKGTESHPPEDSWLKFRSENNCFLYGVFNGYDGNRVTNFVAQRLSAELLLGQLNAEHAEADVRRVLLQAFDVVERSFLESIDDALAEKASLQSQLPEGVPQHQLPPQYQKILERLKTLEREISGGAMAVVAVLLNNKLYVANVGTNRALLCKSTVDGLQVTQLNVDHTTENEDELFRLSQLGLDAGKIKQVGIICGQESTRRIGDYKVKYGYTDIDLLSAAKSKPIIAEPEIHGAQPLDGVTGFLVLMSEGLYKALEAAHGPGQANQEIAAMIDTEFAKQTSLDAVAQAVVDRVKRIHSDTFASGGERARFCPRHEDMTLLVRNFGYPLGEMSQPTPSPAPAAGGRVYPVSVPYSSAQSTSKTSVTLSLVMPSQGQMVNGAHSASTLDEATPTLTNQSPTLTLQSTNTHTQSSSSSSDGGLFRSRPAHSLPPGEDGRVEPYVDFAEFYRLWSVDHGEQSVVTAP

NAMALWA = assay: AlamarBlue proliferation assay, GI50; assay type: cell-based; conditions: Homo sapiens, 72 hours, Table 6, read-out: GI50 NAMALWA Burkitts Lymphoma
Method: (§1) The TAK1 inhibitors are known in the art (see for example, WO 2003010158, WO 2003010163 and WO2004063186 the disclosures of which are incorporated by reference herein). All cell lines were plated at 10,000 cells/well in flat-bottomed 96 well plates and dosed with test compounds in triplicate over a 10 point dosing range from 0 to 30 μmolesL^−1. All cell lines were incubated with test compounds for a total of 72 hours. Background levels were determined for a control (undosed) plate within 2 hours of dosing test compounds. Following the dosing period, the extent of proliferation was measured by adding 1/10 (vol/vol) AlamarBlue reagent to every well and incubating the plates for a further 4 hours. The reaction was stopped by the addition of SDS to a final concentration of 0.1%. Fluorescence was measured at 545 nm (excitation) and 600 nm (emission). Growth inhibition 50 (GI50) values were determined for each test compound across the panel.
(§2) The experiments to generate the results for both Tables 5 and 6 were performed as described above.

IM-9 = assay: AlamarBlue proliferation assay, GI50; assay type: cell-based; conditions: Homo sapiens, 72 hours, Table 5, read-out: GI50 IM-9 B lymph
Method: as §1, §2

SC-1 = assay: AlamarBlue proliferation assay, GI50; assay type: cell-based; conditions: Homo sapiens, 72 hours, Table 6, read-out: GI50 SC-1 FL
Method: as §1, §2

AM0-1 = assay: AlamarBlue proliferation assay, GI50; assay type: cell-based; conditions: Homo sapiens, 72 hours, Table 5, read-out: GI50 AM0-1 plasmacytoma
Method: as §1, §2

JVM-3 = assay: AlamarBlue proliferation assay, GI50; assay type: cell-based; conditions: Homo sapiens, 72 hours, Table 6, read-out: GI50 JVM-3 B-PLL
Method: as §1, §2

U937 = assay: AlamarBlue proliferation assay, GI50; assay type: cell-based; conditions: Homo sapiens, U-937, 72 hours, Table 6, read-out: GI50 U937 Histiocytic lymphoma
Method: as §1, §2

WSU DLCL2 = assay: AlamarBlue proliferation assay, GI50; assay type: cell-based; conditions: Homo sapiens, WSUDLCL2, 72 hours, Table 6, read-out: GI50 WSU DLCL2 B cell lymphoma
Method: as §1, §2

JEKO-1 = assay: AlamarBlue proliferation assay, GI50; assay type: cell-based; conditions: Homo sapiens, 72 hours, Table 6, read-out: GI50 JEKO-1 MCL
Method: as §1, §2

Ramos = assay: AlamarBlue proliferation assay, GI50; assay type: cell-based; conditions: Homo sapiens, 72 hours, Table 6, read-out: GI50 Ramos Burkitts Lymphoma
Method: as §1, §2

L-363 = assay: AlamarBlue proliferation assay, GI50; assay type: cell-based; conditions: Homo sapiens, 72 hours, Table 5, read-out: GI50 L-363 plasma cell leukemia
Method: as §1, §2

JJN-3 = assay: AlamarBlue proliferation assay, GI50; assay type: cell-based; conditions: Homo sapiens, 72 hours, Table 5, read-out: GI50 JJN-3 plasma cell leukemia
Method: as §1, §2

MOLP-8 = assay: AlamarBlue proliferation assay, GI50; assay type: cell-based; conditions: Homo sapiens, 72 hours, Table 5, read-out: GI50 MOLP-8 Multiple myeloma
Method: as §1, §2

KARPAS-620 = assay: AlamarBlue proliferation assay, GI50; assay type: cell-based; conditions: Homo sapiens, 72 hours, Table 5, read-out: GI50 KARPAS-620 plasma cell leukemia
Method: as §1, §2

RPMI-8226 = assay: AlamarBlue proliferation assay, GI50; assay type: cell-based; conditions: Homo sapiens, 72 hours, Table 5, read-out: GI50 RPMI-8226 Multiple myeloma
Method: as §1, §2

DERL 2 = assay: AlamarBlue proliferation assay, GI50; assay type: cell-based; conditions: Homo sapiens, T-cell, 72 hours, Table 6, read-out: GI50 DERL 2 T cell lymphoma
Method: as §1, §2

Raji = assay: AlamarBlue proliferation assay, GI50; assay type: cell-based, human; conditions: 72 hours
Method: as §1

**Q.** With `COC(C)(C)CNCc1ccc(-c2cc(NC(N)=O)c(C(N)=O)s2)cc1` [Compound 4, 3-[(aminocarbonyl)amino]-5-(4-{[(2-methoxy-2-methylpropyl)amino]methyl}phenyl)thiophene-2-carboxamide] as the compound, how does the IC50 (TAK1; Table 4, read-out: TAK1 pIC50 (enzyme) (converted)) read?
**A.** 63.1 nM

**Q.** What about the “TAK1 pIC50” value (TAK1; Table 5) of the same compound?
**A.** 7.2

**Q.** And the GI50 (NAMALWA)?
**A.** 2960 nM

**Q.** And the GI50 (IM-9)?
**A.** 210 nM

**Q.** And the GI50 (SC-1)?
**A.** 2880 nM

**Q.** And the GI50 (AM0-1)?
**A.** 910 nM

**Q.** What about the GI50 (JVM-3) of the same compound?
**A.** 140 nM

**Q.** And the GI50 (U937)?
**A.** 120 nM

**Q.** What about the GI50 (WSU DLCL2) of the same compound?
**A.** 1950 nM

**Q.** And the GI50 (JEKO-1)?
**A.** 290 nM

**Q.** What about the GI50 (Ramos) of the same compound?
**A.** 210 nM

**Q.** And the GI50 (L-363)?
**A.** 350 nM

**Q.** And the GI50 (JJN-3)?
**A.** 520 nM

**Q.** What about the GI50 (MOLP-8) of the same compound?
**A.** 90 nM

**Q.** And the GI50 (KARPAS-620)?
**A.** 140 nM

**Q.** And the GI50 (RPMI-8226)?
**A.** 1600 nM

**Q.** What about the GI50 (DERL 2) of the same compound?
**A.** 310 nM

**Q.** What about the GI50 (Raji; Table 6, read-out: GI50 Raji Burkitts Lymphoma) of the same compound?
**A.** > 30000 nM

**Q.** And the GI50 (Raji; Homo sapiens, Raji, Table 4, read-out: GI50 Raji Burkitts Lymphoma)?
**A.** > 30000 nM
